Here are results for six compounds from US12390472B2 (SUZHOU SINOVENT PHARMACEUTICALS CO., LTD., priority 2018, dated 2025).

Molecules are shown by their SMILES. Like-named read-outs stand apart in the source and are kept apart here.

One series concerns the target EZH2 enzyme complex (Homo sapiens (Human), UniProt Q15910). Put plainly: Test on EZH2 inhibitory activity (TR-FRET). The format is biochemical. The note with it: EZH2 enzyme complex 25 ng/uL, histone H3 peptide 4 uM, SAM 2 uM, 300 min; read-out: IC50 of EZH2 inhibition.
The test system of the next series is WSU-DLCL2. Put plainly: Methylated lysine of histone-H3 (H3K27Me3) detection by ELISA, WSU-DLCL2 cells. Type of series: cell-based. Particulars: WSU-DLCL2, 7 days treatment, H3K27Me3 normalized to total histone-3, read-out: IC50 of cell methylation, WSU-DLCL2. An outline of the steps: (§1)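 Cells were treated 7 days with compound (4-fold dilutions, 20 uM-0.009 nM), then lysed hypotonically with NaCl adjusted to ~100 mM. Lysate-coated plates were probed by ELISA for H3K27Me3 and total H3 (TMB, A450). Methylation signal was normalised to total H3 before curve fitting.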

The subject of the next series is Pfeiffer. Put plainly: Methylated lysine of histone-H3 (H3K27Me3) detection by ELISA, Pfeiffer cells. Particulars: 7 days treatment, H3K27Me3 normalized to total histone-3, read-out: IC50 of cell methylation, Pfeiffer. Type of series: cell-based, human. The gist of the method:
as §1
On the technique in general: An ELISA detects its analyte on a solid surface through an enzyme-linked reagent.

The nature of series [1]: In vivo pharmacokinetic properties in mice. Further details: species or system mouse; Cmax: unit: ng/mL. Particulars: male ICR mice; for F: intragastric 250 mg/kg vs intravenous 5 mg/kg; for CL / AUC(0-inf) / Cmax / Tmax / half-life / AUC0-∞ / T1/2: single intravenous 5 mg/kg and intragastric 250 mg/kg study. As for the experimental part: Male ICR mice were divided into different groups with 3 mice in each group, and single intravenous injection and single intragastric administration were conducted respectively. The compounds were formulated with 10% DMSO/90% (20% Captisol) to reach an appropriate concentration and then administered intravenously at 5 mg/kg. The compounds were formulated with 0.5% CMC-Na/0.1% Tween 80 (pH=3-4) to reach an appropriate concentration and then administered intragastrically at 250 mg/kg. Blood was taken at 5 min, 15 min, 30 min, 1 h, 2 h, 4 h, 6 h, 8 h and 24 h after administration, and then subjected to EDTA-K2 anticoagulation. The concentration of the compound in the plasma was quantitatively detected by an LC-MS/MS method.

Another series has as its system WSU-DLCL2 cells. Put plainly: Experiment on WSU-DLCL2 cell proliferation (Calcein-AM). The format is cell-based. As for the experimental part: WSU-DLCL2 cells were plated in a 96-well plate and 100 uL of cells (a density of 1×10^5 cells/mL) and 50 uL of compound stock at 3-fold concentration was added to each well, and the final volume was 150 uL/well. After 6 days of culturing, on day 7, the cells in the well plate were mixed well by pipetting, and 50 uL of the cell suspension was pipetted to be tested for cell viability using Calcein-AM. 50 uL of the cell suspension was added to a 96-well plate coated by poly-D-Lysine, and then 50 uL of HBSS containing 2 uM Calcein-AM was added to make the final concentration of Calcein-AM 1 uM. After incubation for 10 min at room temperature, the cells were rapidly centrifuged to be deposited on the bottom of the plate. The cells were cultured in the incubator for another 40 min and then the plate was read on Acumen.
The remaining cells were diluted and then plated in a 96-well plate, and 100 uL of cells and 50 uL of a compound at 3-fold concentration were added to each well for further culturing until day 14, and the cell viability was detected as described above. The IC50 was calculated.

For the next series, the system named is Pfeiffer cells. Put plainly: Experiment on Pfeiffer cell proliferation (CellTiter-Glo). Type of series: cell-based, human. As for the experimental part: 90 uL of cells were added to each well of a 96-well plate at 12000 cells/well, and cell-free culture medium was added to blank control wells. The plate was incubated overnight in an incubator at 37° C., 5% CO2 and 100% relative humidity. The compounds were diluted from highest to lowest concentration gradient with DMSO to make stock solutions at 400-fold and 10-fold concentration. 10 μL of 10× compound working solution was added to the cell culture plate, and the total concentration of the compound was detected from 10 μM, 9 concentration points in total, and 3-fold serial dilution was performed. 10 μL of DMSO-cell culture medium mixture solution was added to the vehicle control wells and blank control wells. The final concentration of DMSO was 0.25%. The plate was put back in the incubator for another 7 days of culturing.
The cell culture plate cultured for 7 days was taken out of the incubator, and the suspended cells in the 96-well plate were mixed well by pipetting multiple times. 74 uL of fresh cell culture medium was added to a new 96-well plate, and 16 uL of cell suspension was pipetted from the 96-well plate with cells mixed well by pipetting into the new 96-well plate to bring the total volume to 90 uL. Cells in the new 96-well plate were treated with the compound. The new 96-well plate was put back in the incubator for another 7 days of culturing, and then cell viability was detected directly.
84 μL of cell suspension was taken from the cell culture plate for cell viability detection.
CellTiter-Glo buffer and substrate were thawed and balanced to room temperature. The CellTiter-Glo buffer was added to a bottle of CellTiter-Glo substrate to dissolve the substrate, thereby preparing CellTiter-Glo working solution. The bottle was subjected to slow vortex shaking to completely dissolve the substrate. The cell culture plate was taken out and balanced to room temperature for 30 min. 50 μL of CellTiter-Glo working solution was added to each well. The cell plate was wrapped with aluminum foil to keep out of light. The plate was shaken on an orbital shaker for 2 min to induce cell lysis. The plate was placed at room temperature for 10 min to stabilize the luminescence signals. The luminescence signals were detected on 2104 En Vision plate reader.
Inhibition rates of compounds at different concentrations were calculated in Excel, followed by plotting the inhibition curves and calculating relevant parameters including minimum (%), maximum (%), and absolute IC50 using GraphPad Prism software.
On the technique in general: ATP-based viability assays read luminescence as a measure of living cells.

[2] abbreviates: mouse, plasma, oral, read-out: Cmax.
Where [3] appears, read: mouse, plasma, oral, read-out: Tmax.
The mark [4] stands for this setting: WSU-DLCL2, Day 7, read-out: IC50 WSU-DLCL2 proliferation Day 7.
Setting [5] is: WSU-DLCL2, Day 14, read-out: IC50 WSU-DLCL2 proliferation Day 14.
[6] abbreviates: Day 7, read-out: IC50 Pfeiffer proliferation Day 7.
Setting [7] is: Day 14, read-out: IC50 Pfeiffer proliferation Day 14.

Usually AUC(0-inf) stands for total exposure, with the tail of the curve extrapolated. As a reminder, the Cmax is the highest concentration seen after dosing. As a reminder, the Tmax is the time at which the peak concentration occurs. One may read the half-life as how long it takes for the measured level to halve.

Sequence of EZH2 enzyme complex (Q15910 whole entry): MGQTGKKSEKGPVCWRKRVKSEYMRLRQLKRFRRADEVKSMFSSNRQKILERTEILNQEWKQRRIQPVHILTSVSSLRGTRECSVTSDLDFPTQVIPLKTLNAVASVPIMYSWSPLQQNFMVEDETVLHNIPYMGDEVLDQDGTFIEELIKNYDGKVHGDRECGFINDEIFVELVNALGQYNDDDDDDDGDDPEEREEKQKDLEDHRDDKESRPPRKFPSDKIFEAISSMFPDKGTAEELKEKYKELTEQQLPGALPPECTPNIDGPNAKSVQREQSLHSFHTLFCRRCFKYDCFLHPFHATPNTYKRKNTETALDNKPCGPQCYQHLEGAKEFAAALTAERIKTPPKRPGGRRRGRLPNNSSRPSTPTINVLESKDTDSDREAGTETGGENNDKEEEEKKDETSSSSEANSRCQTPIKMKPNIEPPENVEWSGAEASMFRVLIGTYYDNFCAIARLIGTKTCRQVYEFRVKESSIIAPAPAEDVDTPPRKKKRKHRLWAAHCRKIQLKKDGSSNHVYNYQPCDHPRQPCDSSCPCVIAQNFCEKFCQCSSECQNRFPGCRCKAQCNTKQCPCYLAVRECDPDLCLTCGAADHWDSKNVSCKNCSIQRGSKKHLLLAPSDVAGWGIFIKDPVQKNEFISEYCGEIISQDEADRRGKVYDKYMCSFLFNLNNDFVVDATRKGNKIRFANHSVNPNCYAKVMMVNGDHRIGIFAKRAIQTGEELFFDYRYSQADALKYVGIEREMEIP
Sequence of EZH2 enzyme complex (O75530 whole entry partner): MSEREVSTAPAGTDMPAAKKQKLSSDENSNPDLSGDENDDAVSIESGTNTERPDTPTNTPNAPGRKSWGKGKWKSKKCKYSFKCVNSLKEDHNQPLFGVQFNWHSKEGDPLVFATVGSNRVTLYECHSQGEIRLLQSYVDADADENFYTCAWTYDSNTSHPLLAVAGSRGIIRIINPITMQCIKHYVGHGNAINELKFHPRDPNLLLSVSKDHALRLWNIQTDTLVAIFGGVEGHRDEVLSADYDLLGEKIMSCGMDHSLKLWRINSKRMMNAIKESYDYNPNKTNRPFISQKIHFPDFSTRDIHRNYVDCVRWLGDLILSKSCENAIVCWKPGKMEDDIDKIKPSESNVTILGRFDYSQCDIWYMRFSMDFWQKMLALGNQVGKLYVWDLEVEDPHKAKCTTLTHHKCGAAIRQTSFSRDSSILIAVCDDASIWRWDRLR
Sequence of EZH2 enzyme complex (Q15022 whole entry partner): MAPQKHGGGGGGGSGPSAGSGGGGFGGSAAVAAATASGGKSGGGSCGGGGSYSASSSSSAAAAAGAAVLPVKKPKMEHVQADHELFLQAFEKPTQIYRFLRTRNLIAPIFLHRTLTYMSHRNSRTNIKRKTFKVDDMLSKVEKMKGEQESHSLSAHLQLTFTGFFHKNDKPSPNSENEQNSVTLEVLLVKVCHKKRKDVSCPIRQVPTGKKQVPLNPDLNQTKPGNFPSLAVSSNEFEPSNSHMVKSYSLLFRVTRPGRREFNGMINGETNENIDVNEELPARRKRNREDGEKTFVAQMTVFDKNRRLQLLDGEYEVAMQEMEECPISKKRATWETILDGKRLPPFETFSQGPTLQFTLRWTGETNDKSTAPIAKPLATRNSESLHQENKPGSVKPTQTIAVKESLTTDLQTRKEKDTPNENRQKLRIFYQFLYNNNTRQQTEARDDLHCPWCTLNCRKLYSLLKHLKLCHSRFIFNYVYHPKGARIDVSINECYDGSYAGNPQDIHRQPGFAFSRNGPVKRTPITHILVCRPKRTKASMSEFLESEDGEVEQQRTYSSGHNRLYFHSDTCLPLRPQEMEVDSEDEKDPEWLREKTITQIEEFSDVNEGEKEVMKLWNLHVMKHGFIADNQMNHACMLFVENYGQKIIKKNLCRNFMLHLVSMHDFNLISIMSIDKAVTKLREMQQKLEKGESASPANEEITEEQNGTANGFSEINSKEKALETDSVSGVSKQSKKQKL

As to `CCN(c1cc(O[C@H]2C[C@H](N3CCOCC3)C2)cc(C(=O)NCc2c(C)cc(C)[nH]c2=O)c1C)C1CCOCC1` [Example 4, N-((4,6-dimethyl-2-oxo-1,2-dihydropyridin-3-yl)methyl)-3-(ethyl(tetrahydro-2H-pyran-4-yl)amino)-2-methyl-5-(trans-3-morpholinylcyclobutoxy)benzamide], the IC50 is 10 to 100 nM at EZH2 enzyme complex; 50 to 500 nM with WSU-DLCL2 (Homo sapiens, WSUDLCL2, 168 h); below 50 nM in the series on Pfeiffer (Homo sapiens, 168 h). The compound further had a F in series [1] of 25.1%. Also, the CL in series [1] is on record as 60.6 ± 19.36 mL/min/lg. Further, the total exposure AUC(0-inf) in series [1] (mouse, plasma, oral) is 18800 ± 487 ng·h/mL. In addition, in series [1] (setting [2]), the Cmax amounted to 16500 ± 4630 ng/mL. Also, the Tmax in series [1] (setting [3]) is 0.33 ± 0.14 h. Besides, the half-life in series [1] (mouse, plasma) is 3.13 ± 3.1 h.
As to `CCN(c1cc(OC2CN(C(=O)OC(C)(C)C)C2)cc(C(=O)NCc2c(C)cc(C)[nH]c2=O)c1C)C1CCOCC1` [EPZ194, reference compound], the IC50 with WSU-DLCL2 cells (setting [4]) was 106 nM. For the same compound, the IC50 in the series on WSU-DLCL2 cells (setting [5]) is 23 nM. The IC50 in the series with Pfeiffer cells (setting [6]) turned out to be 62 nM. Also, the IC50 in the series on Pfeiffer cells (setting [7]) stood at 11 nM. Also, in series [1], the F turned out to be 9.91%, the “AUC0-∞” value came to 7476 ± 1311 ng·h/mL, the CL worked out at 59.5 ± 19.1 mL/min/lg and the Cmax came out at 4059 ± 1830 ng/mL. In series [1], the T1/2 amounted to 2.13 ± 1.02 h and the time to peak (Tmax) worked out at 0.83 ± 0.29 h.
As for `CCN(c1cc(OC2CNC2)cc(C(=O)NCc2c(C)cc(C)[nH]c2=O)c1C)C1CCOCC1` [EPZ195, reference compound], the IC50 with WSU-DLCL2 cells (setting [4]) was 1430 nM. Also, the IC50 with WSU-DLCL2 cells (setting [5]) was 281 nM. The IC50 in the series on Pfeiffer cells (setting [6]) came out at 385 nM. Moreover, the IC50 in the series with Pfeiffer cells (setting [7]) is 127 nM. Also, in series [1], the F came out at 2.64%, the “AUC0-∞” value was 3071 ± 486 ng·h/mL, the CL came to 36.5 ± 6.21 mL/min/lg and the Cmax amounted to 945 ± 283 ng/mL. In series [1], the T1/2 is 5.12 ± 0.89 h and the Tmax is on record as 1.42 ± 1.01 h.
As for `CCN(c1cc(O[C@H]2C[C@H](N3CCC(C)CC3)C2)cc(C(=O)NCc2c(C)cc(C)[nH]c2=O)c1Cl)C1CCOCC1` [Example 59, 2-chloro-N-((4,6-dimethyl-2-oxo-1,2-dihydropyridin-3-yl)methyl)-3-(ethyl(tetrahydro-2H-pyran-4-yl)amino)-5-(trans-3-(4-methylpiperidin-1-yl)cyclobutoxy)benzamide], the IC50 on EZH2 enzyme complex is below 10 nM; in the series on WSU-DLCL2 (Homo sapiens, WSUDLCL2, 168 h), below 50 nM; with Pfeiffer (Homo sapiens, 168 h) it was 50 to 500 nM. In series [1], this compound showed an F of 60.5%. This compound had a CL in series [1] of 59.1 ± 6.95 mL/min/lg. The same compound returned an AUC(0-inf) in series [1] (mouse, plasma, oral) of 43000 ng·h/mL. Further, in series [1] (setting [2]), the Cmax was determined as 16600 ng/mL. Also, in series [1] (setting [3]), the time of peak concentration (Tmax) worked out at 0.8 ± 0.27 h. In addition, the half-life in series [1] (mouse, plasma) was 6.2 ± 3.83 h.
For the compound `CCN(c1cc(O[C@H]2C[C@H](N3C[C@@H](C)O[C@@H](C)C3)C2)cc(C(=O)NCc2c(C)cc(C)[nH]c2=O)c1C)C1CC2CCC(C1)O2` (stereo partly drawn) [Example 47, 3-((8-oxabicyclo[3.2.1]octan-3-yl)(ethyl)amino)-N-((4,6-dimethyl-2-oxo-1,2-dihydropyridin-3-yl)methyl)-5-(trans-3-(cis-2,6-dimethylmorpholinyl)cyclobutoxy)-2-methylbenzamide], the IC50 was in the range of 10 to 100 nM on EZH2 enzyme complex; 50 to 500 nM with WSU-DLCL2 (Homo sapiens, WSUDLCL2, 168 h); 50 to 500 nM in the series with Pfeiffer (Homo sapiens, 168 h). The same compound came in with a F in series [1] of 118.1%. Further, the CL in series [1] was found to be 103 ± 11.9 mL/min/lg. Also, the AUC(0-inf) in series [1] (mouse, plasma, oral) is 48000 ng·h/mL. The Cmax in series [1] (setting [2]) amounted to 19600 ± 8050 ng/mL. Also, in series [1] (setting [3]), the Tmax amounted to 0.67 ± 0.29 h. The same compound had a half-life in series [1] (mouse, plasma) of 3.1 ± 1.04 h.
As to `CCN(c1cc(O[C@H]2C[C@H](CN3C[C@@H](C)O[C@@H](C)C3)C2)cc(C(=O)NCc2c(C)cc(C)[nH]c2=O)c1Cl)C1CCOCC1` [Example 53, 2-chloro-N-((4,6-dimethyl-2-oxo-1,2-dihydropyridin-3-yl)methyl)-5-(trans-3-((cis-2,6-dimethylmorpholinyl)methyl)cyclobutoxy)-3-(ethyl(tetrahydro-2H-pyran-4-yl)amino)benzamide], the IC50 on EZH2 enzyme complex is 10 to 100 nM; with WSU-DLCL2, 50 to 500 nM; with Pfeiffer it was 500 to 1000 nM.
